The test system of one assay is NCI-ADR-RES. The assay can be described thus: cells. The following applies: Homo sapiens, 48 h.
The subject of a further assay is IGROV1. The assay can be described thus: cells. The following applies: Homo sapiens, IGROV-1, 48 h.
The next assay relates to HCT-116. The following applies: 48 hours, five 10-fold dilutions starting from 100 μM.
The subject of a further assay is SNB-19. Nature of the assay: cells. The following applies: Homo sapiens, SNB-19, 48 h.
A further assay deals with OVCAR-5. The following applies: 48 hours, five 10-fold dilutions starting from 100 μM.
For the next assay, the system named is DU-145. The assay can be described thus: cells. The following applies: Homo sapiens, DU-145, 48 h.
The subject of a further assay is OVCAR-4. Nature of the assay: cells. The following applies: Homo sapiens, OVCAR-4, 48 h.
In the next assay the test system is EKVX. Nature of the assay: cells. The following applies: Homo sapiens, 48 h.
Another assay has as its system MDA-MB-435. The following applies: 48 hours, five 10-fold dilutions starting from 100 μM.
The subject of another assay is NCI-H460. The following applies: 48 hours, five 10-fold dilutions starting from 100 μM.
The next assay concerns HCT-15. The following applies: 48 hours, five 10-fold dilutions starting from 100 μM.
In another assay the test system is RPMI-8226. The assay can be described thus: NCI screen antiproliferative activity, sulforhodamine B, Leukemia panel. Type of assay: cell-based, human. The following applies: 48 hours, five 10-fold dilutions starting from 100 μM.

Usually GI50 stands for the concentration giving 50% growth inhibition. A higher GI50 goes with lower sensitivity of the cells. For orientation: TGI means the concentration at which net growth stops. A high value points to lower sensitivity of the cells.

SMILES strings stand for the structures.

Consider `CCCCCCCCNCCC[C@@H](C)[C@H]1CC[C@H]2[C@@H]3[C@H](OCCCN)C[C@@H]4C[C@H](OCCCN)CC[C@]4(C)[C@H]3C[C@H](OCCCN)[C@]12C` [CSA-13], for which the GI50 in the assay with NCI-ADR-RES worked out at 1.83 µM; in the assay with IGROV1 it was 1.44 µM; in the assay with SNB-19, 1.49 µM; in the assay with DU-145, 1.14 µM; with OVCAR-4 it was 5.51 µM; in the assay on EKVX, 1.32 µM. This compound also registered a GI50 with RPMI-8226 (Homo sapiens) of 0.266 µM. Moreover, the CC50 in the assay with NCI-ADR-RES (read-out: LC50) was 36.5 µM; with IGROV1 (read-out: LC50) it was 8.67 µM; in the assay with SNB-19 (read-out: LC50), 89.3 µM; in the assay on DU-145 (read-out: LC50), 4.85 µM; in the assay on OVCAR-4 (read-out: LC50), 83 µM; in the assay with EKVX (read-out: LC50), 8.62 µM. The TGI with HCT-116 came to 2.61 µM; with OVCAR-5, 9.44 µM; in the assay with MDA-MB-435 it was 1.46 µM; in the assay with NCI-H460 it was 3.92 µM; in the assay on HCT-15, 14.8 µM; in the assay with RPMI-8226, 0.911 µM.

For the origin of these results see patent publication US9943529B2, “Methods for reducing cellular proliferation and treating certain diseases” (BRIGHAM YOUNG UNIVERSITY, priority 2013, dated 2018).
